From article PMC11425660, “[^186Re]Re- and [^99mTc]Tc-Tricarbonyl Metal Complexes with 1,4,7-Triazacyclononane-Based Chelators Bearing Amide, Alcohol, or Ketone Pendent Groups” (ACS Omega, 2024) come the findings set out here.

Series [1] is described as follows: storage stability (observation). Type of series: physicochemical.
Series [2] is described as follows: solubility in solvents (observation). As to conditions: solvents as named in the value. Type of series: physicochemical.

For the compound `NC(=O)CN1CCN(CC(N)=O)CCN(CC(=O)NCc2ccccc2)CC1` [Chelator 2, 2,2′-(7-(2-(Benzylamino)-2-oxoethyl)-1,4,7-triazonane-1,4-diyl)diacetamide], the storage stability entry in series [1] (stored at 4 °C) is “stable when stored at 4 °C for several weeks”. The solubility result in series [2] was “soluble in water, methanol, acetonitrile, and dimethyl sulfoxide”.

For `O=C(CN1CCN(CCO)CCN(CCO)CC1)NCc1ccccc1` [Chelator 3, N-Benzyl-2-(4,7-bis(2-hydroxyethyl)-1,4,7,-triazonan-1-yl)acetamide], the storage stability entry in series [1] (stored at 4 °C) is “stable when stored at 4 °C for several weeks”. In addition, the solubility entry in series [2] was “soluble in water, methanol, acetonitrile, and dimethyl sulfoxide”.

With `CC(=O)CN1CCN(CC(C)=O)CCN(CC(=O)NCc2ccccc2)CC1` [Chelator 4, N-Benzyl-2-(4,7-bis(2-oxopropyl)-1,4,7-triazonan-1-yl)acetamide], the storage stability result in series [1] (stored at 4 °C) is “stable at 4 °C for several weeks”. In series [2], the solubility entry was “soluble in dimethyl sulfoxide”.

Take `O=C(O)CN1CCN(CC(=O)O)CCN(CC(=O)NCc2ccccc2)CC1` [Chelator 5, 2,2′-(7-(2-(Benzylamino)-2-oxoethyl)-1,4,7-triazonane-1,4-diyl)diacetic Acid]: in series [1] (room temperature), the storage stability entry was “stable at room temperature for several months”. Moreover, the solubility entry in series [2] is “soluble in water, methanol, acetonitrile, and dimethyl sulfoxide”.
